# According to patent US11000490B2, “Stable aqueous capsaicin injectable formulations and medical uses thereof” (priority 2016, dated 2021):
# Legend:
# in vivo = details: both sexes, New Zealand White, rabbit, rabbits, 0.3 mg trans-capsaicin as Capsaicin Formulation A, intra-articular, Day 1, combined males and females
# Experimental: Animals were administered a single dose of test article (i.e., Capsaicin Formulation A, or placebo) on Day 1 via intra-articular injection into the right stifle joint. Dosing was followed by an observation period of 4 weeks. […] Prior to injection of test article, animals were sedated via gas anesthesia with sevoflurane. The gas was administered by designated technicians using a nose cone. Following anesthesia but prior to intra-articular injection, the injection site was prepared aseptically with three or more chlorhexidine scrubs, wiping with sterile water between each scrub. Animals were administered 1 mg/kg of midazolam and 0.6 mg/kg of meloxicam SR subcutaneously prior to gas anesthesia. […] The animal was monitored for pain and discomfort during recovery and was returned to its home cage after complete recovery. […] Additional pain management of animals was monitored by veterinary staff.
# Assessment of toxicity was based on mortality, clinical observations (including qualitative food consumption), body weights, physical examinations, and clinical and anatomic pathology. […] Plasma samples were analyzed for capsaicin content. […] Abnormal findings or an indication of normal were recorded. Body weights were recorded twice during the pre-dose phase and on Days 1, 8, 15, and 22 of the dosing phase. […]
# [1] = tested on: New Zealand White rabbits; details: single intra-articular dose as Capsaicin Formulation A
# purebred beagle dogs = details: single intra-articular dose via Capsaicin Formulation A
smiles,measurement,setting,value
"COc1cc(CNC(=O)CCCCC=CC(C)C)ccc1O [trans-capsaicin, N-[(4-hydroxy-3-methoxyphenyl)methyl]-8-methylnon-6-enamide]",Cmax,in vivo,37.9 ng/mL
same,AUC(0-t),in vivo; read-out: mean AUC0-24,27.8 ng·h/mL
same,no observed adverse effect level (NOAEL),[1],0.3 mg
same,no observed adverse effect level (NOAEL),purebred beagle dogs,1 mg
